How the values were obtained:
Conditions in all cases: growth mode: biofilm, 24 h; exposure time: 24 h
tobramycin [1] = compound: T1, NC[C@H]1O[C@H](O[C@H]2[C@H](O)[C@@H](O[C@H]3O[C@H](CO)[C@@H](O)[C@H](N)[C@H]3O)[C@H](N)C[C@@H]2N)[C@H](N)C[C@@H]1O [tobramycin]; assay: minimum concentration of killing, 4-log CFU reduction of biofilm (MCK99.99); higher = more biofilm tolerance
Procedure: (§1)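 Clinical P. aeruginosa isolates were grown as static biofilms for 24 h at 37 °C in LB in half-area 96-well plates, then exposed for 24 h to tobramycin at 1, 4, 16, 64, 256 or […]. Surviving CFU were counted by spotting serial dilutions. MCK is the lowest tested concentration giving the stated log reduction in CFU versus an untreated control; '>1024' means the reduction was not reached at the top dose, and 1 is the lowest dose tested (≤1).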

colistin [2] = compound: T2, CCC(C)CCCC(=O)N[C@@H](CCN)C(=O)N[C@H](C(=O)N[C@@H](CCN)C(=O)N[C@H]1CCNC(=O)[C@H]([C@@H](C)O)NC(=O)[C@H](CCN)NC(=O)[C@H](CCN)NC(=O)[C@H](CC(C)C)NC(=O)[C@@H](CC(C)C)NC(=O)[C@H](CCN)NC1=O)[C@@H](C)O [colistin]; assay: minimum concentration of killing, 1-log CFU reduction of biofilm (MCK90); higher = more biofilm tolerance
Procedure: (§2)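 Clinical P. aeruginosa isolates were grown as static biofilms for 24 h at 37 °C in LB in half-area 96-well plates, then exposed for 24 h to colistin at 1, 4, 16, 64, 256 or […]. Surviving CFU were counted by spotting serial dilutions. MCK is the lowest tested concentration giving the stated log reduction in CFU versus an untreated control; '>1024' means the reduction was not reached at the top dose, and 1 is the lowest dose tested (≤1).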

colistin [3] = compound: T2, colistin; assay: minimum concentration of killing, 2-log CFU reduction of biofilm (MCK99); higher = more biofilm tolerance
Procedure: as §2

tobramycin [4] = compound: T1, tobramycin; assay: minimum concentration eradicating biofilm below detection limit (MCK-E); higher = more biofilm tolerance
Procedure: as §1

tobramycin [5] = compound: T1, tobramycin; assay: minimum concentration of killing, 1-log CFU reduction of biofilm (MCK90); higher = more biofilm tolerance
Procedure: as §1

colistin [6] = compound: T2, colistin; assay: minimum concentration eradicating biofilm below detection limit (MCK-E); higher = more biofilm tolerance
Procedure: as §2

colistin [7] = compound: T2, colistin; assay: minimum concentration of killing, 4-log CFU reduction of biofilm (MCK99.99); higher = more biofilm tolerance
Procedure: as §2

tobramycin [8] = compound: T1, tobramycin; assay: minimum concentration of killing, 2-log CFU reduction of biofilm (MCK99); higher = more biofilm tolerance
Procedure: as §1

Test System	minimum concentration of killing (tobramycin [1]) [µg/mL]	minimum concentration of killing (colistin [2]) [µg/mL]	minimum concentration of killing (colistin [3]) [µg/mL]	minimum concentration eradicating biofilm below detection limit (tobramycin [4]) [µg/mL]	minimum concentration of killing (tobramycin [5]) [µg/mL]	minimum concentration eradicating biofilm below detection limit (colistin [6]) [µg/mL]	minimum concentration of killing (colistin [7]) [µg/mL]	minimum concentration of killing (tobramycin [8]) [µg/mL]
Pseudomonas aeruginosa clinical isolate ESP076	> 1020	256	256	> 1020	> 1020	256	256	> 1020
Pseudomonas aeruginosa clinical isolate ESP077	1020	64	64	> 1020	1020	256	256	1020
Pseudomonas aeruginosa clinical isolate ESP081	64	256	256	64	4	256	256	16
Pseudomonas aeruginosa clinical isolate ESP083	> 1020	4	64	> 1020	> 1020	256	256	> 1020
Pseudomonas aeruginosa clinical isolate ESP088	> 1020	64	64	> 1020	256	256	256	1020
Pseudomonas aeruginosa clinical isolate ESP091	1020	256	256	1020	64	256	256	64
Pseudomonas aeruginosa clinical isolate ESP093	> 1020	16	64	> 1020	4	256	256	1020
Pseudomonas aeruginosa clinical isolate F1688	256	16	256	256	4	256	256	4
Pseudomonas aeruginosa clinical isolate F1706	16	256	256	256	4	256	256	16
Pseudomonas aeruginosa clinical isolate F1720	1020	≤ 1	64	> 1020	4	256	256	64
Pseudomonas aeruginosa clinical isolate F1727	1020	256	256	1020	4	256	256	4
Pseudomonas aeruginosa clinical isolate F1757	> 1020	64	64	> 1020	≤ 1	256	64	64
Pseudomonas aeruginosa clinical isolate F1758	1020	64	256	1020	16	256	256	256
Pseudomonas aeruginosa clinical isolate F1759	64	64	256	256	≤ 1	256	256	4
